Results reported in US6737383B1, “Herbicidal oxadiazolidines” (priority 1999, dated 2004).

Experiments:
[1] = test system: duck salad; assay: Test B flood test duck salad; assay type: in vivo, Heteranthera limosa
How it was run: (§1)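 Each value is a visual injury score relative to controls, with 10 meaning complete control and 0 no effect. Evaluation took place twelve to sixteen days after the 2-leaf-stage plants were treated and kept in the greenhouse.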

[2] = test system: giant foxtail; assay: Test B pre/postemergence giant foxtail; assay type: in vivo, Setaria faberii; details: for Giant foxtail plant response rating: scale of 0 to 10 where 0 is no effect and 10 is complete control
How it was run: (§2)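 Response is a visual 0-to-10 score relative to untreated plants, where 0 means no effect and 10 means complete control, taken twelve to sixteen days after application. Treatments went onto soil at planting and onto foliage of 1- to 4-leaf plants, using a surfactant-containing non-phytotoxic solvent.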

[3] = test system: morningglory; assay: Test B pre/postemergence morningglory; assay type: in vivo, Ipomoea hederacea; details: for Morningglory plant response rating: scale of 0 to 10 where 0 is no effect and 10 is complete control
How it was run: as §2

[4] = test system: rice; assay: Test B flood test rice; assay type: in vivo, Oryza sativa
How it was run: as §1

[5] = test system: surinam grass; assay: Test B pre/postemergence surinam grass; assay type: in vivo, Brachiaria decumbens
How it was run: as §2

[6] = test system: wild oat; assay: Test B pre/postemergence wild oat; assay type: in vivo, Avena fatua; details: for Wild oats plant response rating: scale of 0 to 10 where 0 is no effect and 10 is complete control
How it was run: as §2

[7] = test system: rape; assay: Test B pre/postemergence rape; assay type: in vivo, Brassica napus; details: for Rape plant response rating: scale of 0 to 10 where 0 is no effect and 10 is complete control
How it was run: as §2

[8] = test system: wheat; assay: Test B pre/postemergence wheat; assay type: in vivo, Triticum aestivum; details: for Wheat plant response rating: scale of 0 to 10 where 0 is no effect and 10 is complete control
How it was run: as §2

[9] = test system: blackgrass; assay: Test B pre/postemergence blackgrass; assay type: in vivo, Alopecurus myosuroides
How it was run: as §2

[10] = test system: corn; assay: Test B pre/postemergence corn; assay type: in vivo, Zea mays; details: for Corn plant response rating: scale of 0 to 10 where 0 is no effect and 10 is complete control
How it was run: as §2

[11] = test system: smallflower flatsedge; assay: Test B flood test smallflower flatsedge; assay type: in vivo, Cyperus difformis
How it was run: as §1

[12] = test system: cocklebur; assay: Test B pre/postemergence cocklebur; assay type: in vivo, Xanthium strumarium; details: for Cocklebur plant response rating: scale of 0 to 10 where 0 is no effect and 10 is complete control
How it was run: as §2

[13] = test system: crabgrass; assay: Test B pre/postemergence crabgrass; assay type: in vivo, Digitaria sanguinalis; details: for Crabgrass plant response rating: scale of 0 to 10 where 0 is no effect and 10 is complete control
How it was run: as §2

[14] = test system: purple nutsedge; assay: Test B pre/postemergence purple nutsedge; assay type: in vivo, Cyperus rotundus; details: for Nutsedge plant response rating: scale of 0 to 10 where 0 is no effect and 10 is complete control
How it was run: as §2

[15] = test system: sugar beet; assay: Test B pre/postemergence sugar beet; assay type: in vivo, Beta vulgaris; details: for Sugarbeets plant response rating: scale of 0 to 10 where 0 is no effect and 10 is complete control
How it was run: as §2

[16] = test system: bamyardgrass; assay: Test B flood test barnyardgrass; assay type: in vivo, Echinochloa crus-galli
How it was run: as §1

[17] = test system: velvetleaf; assay: Test B pre/postemergence velvetleaf; assay type: in vivo, Abutilon theophrasti; details: for Velvetleaf plant response rating: scale of 0 to 10 where 0 is no effect and 10 is complete control
How it was run: as §2

[18] = test system: soybean; assay: Test B pre/postemergence soybean; assay type: in vivo, Glycine max; details: for Soybean plant response rating: scale of 0 to 10 where 0 is no effect and 10 is complete control
How it was run: as §2

[19] = test system: pigweed; assay: Test B pre/postemergence pigweed; assay type: in vivo, Amaranthus retroflexus; details: for Redroot pigweed plant response rating: scale of 0 to 10 where 0 is no effect and 10 is complete control
How it was run: as §2

[20] = test system: bedstraw; assay: Test B pre/postemergence bedstraw; assay type: in vivo, Galium aparine
How it was run: as §2

[21] = Postemergence (flood test), Rate 125 g/ha, scale 0 to 10, 0 is no effect, 10 is complete control
[22] = Rate 62 g/ha, Postemergence (flood test species), scale of 0 to 10 where 0 is no effect and 10 is complete control
[23] = Rate 500 g/ha, listed under Postemergence (flood test species), scale 0 to 10, 0 no effect, 10 complete control
[24] = Postemergence, Rate 125 g/ha, scale 0 to 10, 0 is no effect, 10 is complete control
[25] = Preemergence, Rate 62 g/ha, scale 0 to 10 (0 no effect, 10 complete control)
[26] = Rate 500 g/ha, Postemergence, scale 0 to 10, 0 no effect, 10 complete control
[27] = Preemergence, Rate 250 g/ha, scale of 0 to 10 where 0 is no effect and 10 is complete control
[28] = Preemergence, Rate 500 g/ha, scale of 0 to 10 where 0 is no effect and 10 is complete control
[29] = Rate 62 g/ha, Postemergence, scale of 0 to 10 where 0 is no effect and 10 is complete control
[30] = Rate 250 g/ha, Postemergence, scale of 0 to 10 where 0 is no effect and 10 is complete control

Cc1cccc(C(C)(C)C)c1-n1c(=O)on(C(=O)N(c2ccc(F)cc2)C(C)C)c1=O [Compound 359]
Plant response rating, Ducksalad [1, 21]: 0 | Ducksalad plant response rating [1, 22]: 0 | Plant response rating, Ducksalad [1, 23]: 0 | Plant response rating, Giant foxtail [2, 24]: 0 | Plant response rating, Giant foxtail [2, 25]: 0 | Giant foxtail plant response rating (0 to 10 scale) ([2]; Preemergence, Rate 125 g/ha): 0 | Giant foxtail plant response rating ([2]; Preemergence, Rate 250 g/ha): 0 | Giant foxtail plant response rating ([2]; Preemergence, Rate 500 g/ha): 0 | Giant foxtail plant response rating ([2]; Rate 62 g/ha, Postemergence): 0 | Plant response rating, Giant foxtail [2, 26]: 0 | Plant response rating, Morningglory [3, 24]: 0 | Plant response rating, Morningglory [3, 25]: 0 | Morningglory plant response rating (0 to 10 scale) ([3]; Preemergence, Rate 125 g/ha): 0 | Morningglory plant response rating ([3]; Preemergence, Rate 250 g/ha): 0 | Morningglory plant response rating ([3]; Preemergence, Rate 500 g/ha): 0 | Morningglory plant response rating ([3]; Rate 62 g/ha, Postemergence): 0 | Plant response rating, Morningglory [3, 26]: 0 | Plant response rating, Rice [4, 21]: 0 | Rice plant response rating [4, 22]: 0 | Plant response rating, Rice [4, 23]: 0 | Plant response rating, B. signalgrass [5, 24]: 0 | Plant response rating, B. signalgrass [5, 25]: 0 | B. signalgrass plant response rating (0 to 10 scale, 0 is no effect, 10 is complete control) ([5]; Preemergence, Rate 125 g/ha): 0 | B. signalgrass plant response rating [5, 27]: 0 | B. signalgrass plant response rating [5, 28]: 0 | B. signalgrass plant response rating [5, 29]: 0 | Plant response rating, B. signalgrass [5, 30]: 0 | Plant response rating, B. signalgrass [5, 26]: 0 | Plant response rating, Wild oats [6, 24]: 0 | Plant response rating, Wild oats [6, 25]: 0 | Wild oats plant response rating (0 to 10 scale) ([6]; Preemergence, Rate 125 g/ha): 0 | Wild oats plant response rating ([6]; Preemergence, Rate 250 g/ha): 0 | Wild oats plant response rating ([6]; Preemergence, Rate 500 g/ha): 0 | Wild oats plant response rating ([6]; Rate 62 g/ha, Postemergence): 0 | Plant response rating, Wild oats [6, 26]: 0 | Plant response rating, Rape [7, 24]: 0 | Plant response rating, Rape [7, 25]: 0 | Rape plant response rating (0 to 10 scale) ([7]; Preemergence, Rate 125 g/ha): 0 | Rape plant response rating ([7]; Preemergence, Rate 250 g/ha): 0 | Rape plant response rating ([7]; Preemergence, Rate 500 g/ha): 0 | Rape plant response rating ([7]; Rate 62 g/ha, Postemergence): 0 | Plant response rating, Rape [7, 26]: 0 | Plant response rating, Wheat [8, 24]: 0 | Plant response rating, Wheat [8, 25]: 0 | Wheat plant response rating (0 to 10 scale) ([8]; Preemergence, Rate 125 g/ha): 0 | Wheat plant response rating ([8]; Preemergence, Rate 250 g/ha): 0 | Wheat plant response rating ([8]; Preemergence, Rate 500 g/ha): 0 | Wheat plant response rating ([8]; Rate 62 g/ha, Postemergence): 0 | Plant response rating, Wheat [8, 26]: 2 | Plant response rating, Blackgrass [9, 24]: 0 | Plant response rating, Blackgrass [9, 25]: 0 | Blackgrass plant response rating (0 to 10 scale) ([9]; Preemergence, Rate 125 g/ha): 0 | Blackgrass plant response rating [9, 27]: 0 | Blackgrass plant response rating [9, 28]: 0 | Blackgrass plant response rating [9, 29]: 0 | Plant response rating, Blackgrass [9, 30]: 0 | Plant response rating, Blackgrass [9, 26]: 2 | Plant response rating, Corn [10, 24]: 0 | Plant response rating, Corn [10, 25]: 0 | Corn plant response rating (0 to 10 scale) ([10]; Preemergence, Rate 125 g/ha): 0 | Corn plant response rating ([10]; Preemergence, Rate 250 g/ha): 0 | Corn plant response rating ([10]; Preemergence, Rate 500 g/ha): 0 | Corn plant response rating ([10]; Rate 62 g/ha, Postemergence): 0 | Plant response rating, Corn [10, 26]: 0 | Plant response rating, S. Flatsedge [11, 21]: 0 | S. Flatsedge plant response rating [11, 22]: 0 | Plant response rating, S. Flatsedge [11, 23]: 0 | Plant response rating, Cocklebur [12, 24]: 0 | Plant response rating, Cocklebur [12, 25]: 0 | Cocklebur plant response rating (0 to 10 scale) ([12]; Preemergence, Rate 125 g/ha): 0 | Cocklebur plant response rating ([12]; Preemergence, Rate 500 g/ha): 0 | Cocklebur plant response rating ([12]; Rate 62 g/ha, Postemergence): 0 | Plant response rating, Cocklebur [12, 26]: 1 | Plant response rating, Crabgrass [13, 24]: 0 | Plant response rating, Crabgrass [13, 25]: 0 | Crabgrass plant response rating (0 to 10 scale) ([13]; Preemergence, Rate 125 g/ha): 0 | Crabgrass plant response rating ([13]; Preemergence, Rate 250 g/ha): 0 | Crabgrass plant response rating ([13]; Preemergence, Rate 500 g/ha): 0 | Crabgrass plant response rating ([13]; Rate 62 g/ha, Postemergence): 0 | Plant response rating, Crabgrass [13, 26]: 0 | Plant response rating, Nutsedge [14, 24]: 0 | Plant response rating, Nutsedge [14, 25]: 0 | Nutsedge plant response rating (0 to 10 scale) ([14]; Preemergence, Rate 125 g/ha): 0 | Nutsedge plant response rating ([14]; Preemergence, Rate 250 g/ha): 0 | Nutsedge plant response rating ([14]; Preemergence, Rate 500 g/ha): 0 | Nutsedge plant response rating ([14]; Rate 62 g/ha, Postemergence): 0 | Plant response rating, Nutsedge [14, 26]: 0 | Plant response rating, Sugarbeets [15, 24]: 0 | Plant response rating, Sugarbeets [15, 25]: 0 | Sugarbeets plant response rating (0 to 10 scale) ([15]; Preemergence, Rate 125 g/ha): 0 | Sugarbeets plant response rating ([15]; Preemergence, Rate 250 g/ha): 0 | Sugarbeets plant response rating ([15]; Preemergence, Rate 500 g/ha): 0 | Sugarbeets plant response rating ([15]; Rate 62 g/ha, Postemergence): 0 | Plant response rating, Sugarbeets [15, 26]: 0 | Plant response rating, Barnyardgrass [16, 21]: 0 | Barnyardgrass plant response rating [16, 22]: 0 | Plant response rating, Barnyardgrass ([16]; Rate 250 g/ha, Postemergence (flood test species), scale of 0 to 10 where 0 is no effect and 10 is complete control): 0 | Plant response rating, Barnyardgrass [16, 23]: 0 | Plant response rating, Velvetleaf [17, 24]: 0 | Plant response rating, Velvetleaf [17, 25]: 0 | Velvetleaf plant response rating (0 to 10 scale) ([17]; Preemergence, Rate 125 g/ha): 0 | Velvetleaf plant response rating ([17]; Preemergence, Rate 250 g/ha): 0 | Velvetleaf plant response rating ([17]; Preemergence, Rate 500 g/ha): 0 | Velvetleaf plant response rating ([17]; Rate 62 g/ha, Postemergence): 0 | Plant response rating, Velvetleaf [17, 26]: 2 | Plant response rating, Soybean [18, 24]: 2 | Plant response rating, Soybean [18, 25]: 0 | Soybean plant response rating (0 to 10 scale) ([18]; Preemergence, Rate 125 g/ha): 0 | Soybean plant response rating ([18]; Preemergence, Rate 250 g/ha): 0 | Soybean plant response rating ([18]; Preemergence, Rate 500 g/ha): 0 | Soybean plant response rating ([18]; Rate 62 g/ha, Postemergence): 0 | Plant response rating, Soybean [18, 26]: 3 | Plant response rating, Redroot pigweed [19, 24]: 0 | Plant response rating, Redroot pigweed [19, 25]: 0 | Redroot pigweed plant response rating (0 to 10 scale) ([19]; Preemergence, Rate 125 g/ha): 0 | Redroot pigweed plant response rating ([19]; Preemergence, Rate 250 g/ha): 0 | Redroot pigweed plant response rating ([19]; Preemergence, Rate 500 g/ha): 0 | Redroot pigweed plant response rating ([19]; Rate 62 g/ha, Postemergence): 0 | Plant response rating, Redroot pigweed [19, 26]: 0 | Plant response rating, Bedstraw [20, 24]: 0 | Plant response rating, Bedstraw [20, 25]: 0 | Bedstraw plant response rating (0 to 10 scale) ([20]; Preemergence, Rate 125 g/ha): 0 | Bedstraw plant response rating [20, 27]: 0 | Bedstraw plant response rating [20, 28]: 0 | Bedstraw plant response rating [20, 29]: 0 | Plant response rating, Bedstraw [20, 30]: 0 | Plant response rating, Bedstraw [20, 26]: 0
